The supplement of paper PMC11208160

Assay: recombinant barcode read abundance after kanamycin selection (control-corrected) (log10(CPM+1)); higher = more efficient recombination; sequences stand for … in AGTGCAGAGAAAATCGGCCAGTTTTCTCTGCCTGCAGTCCGCATGCCGT…AGATTTATGCAGCGGACTGCCTTTCTCCCAAAGTGATAAACCGGACAGTATCATGGACCGGTTTTCCCGGTAATCCGTATTTGCAAGGTTGGTTTCACT; site = the 11-nt target
Summary of the method: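 In E. coli, a pooled library matched targets to IS621 bridge RNA target-binding loops and was introduced alongside a donor plasmid. Cells went onto chloramphenicol/ampicillin/kanamycin with 0.1 mM IPTG or onto chloramphenicol/ampicillin LB agar as control, in duplicate. Recombination efficiency, from recombinant-junction barcodes as counts per million, is averaged and control-corrected. It is reported as log10(CPM+1).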
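Note: IS621 recombinase and bridge RNA in Escherichia coli cells.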

Sequence	recombinant barcode read abundance (log10)
GGATCCACTTGGGTTCTAACCTGTTGCCA (site GGATACACTTG)	0.049
GGATCCACTTGGGTTCTAACCTGTTGCCA (site GGATCCACTTG)	0.117
GGATCCACTTGGGTTCTAACCTGTTGCCA (site GGATGCACTTG)	0.0631
GGATCCACTTGGGTTCTAACCTGTTGCCA (site GGATTCACTTG)	0.0388
GGATTCCCTTGGGTTCTAACCTGTTGCCA (site GGAGTCCCTTC)	0.242
GGATTCCCTTGGGTTCTAACCTGTTGCCA (site GGATTCCCTTG)	1.15
GGATTTACTTGGGTTCTAACCTGTTGCCT (site GGATATACTAG)	0.0849
GGATTTACTTGGGTTCTAACCTGTTGCCT (site GGATTTACTAG)	0.276
GGCAAGACTTGGGTTCTAACCTGTTGCCT (site GGAAAGACTAG)	0
GGCAAGACTTGGGTTCTAACCTGTTGCCT (site GGCAAGACTAG)	0.185
GGCAAGACTTGGGTTCTAACCTGTTGCCT (site GGGAAGACTAG)	0.154
GGCAAGACTTGGGTTCTAACCTGTTGCCT (site GGTAAGACTAG)	0.0715
GGCACGGCTTGGGTTCTAACCTGTTGCCT (site GGCACAGCTAG)	0.519
GGCACGGCTTGGGTTCTAACCTGTTGCCT (site GGCACCGCTAG)	0.0995
GGCACGGCTTGGGTTCTAACCTGTTGCCT (site GGCACGGCTAG)	0.134
GGCACGGCTTGGGTTCTAACCTGTTGCCT (site GGCACTGCTAG)	0.11
GGCAGGTCTTGGGTTCTAACCTGTTGCTT (site GGCAGATCTAA)	0.163
GGCAGGTCTTGGGTTCTAACCTGTTGCTT (site GGCAGCTCTAA)	0.0728
GGCAGGTCTTGGGTTCTAACCTGTTGCTT (site GGCAGGTCTAA)	0.795
GGCAGGTCTTGGGTTCTAACCTGTTGCTT (site GGCAGTTCTAA)	0.044
GGCAGTTCTTGGGTTCTAACCTGTTGCTT (site GGCAGATCTAA)	0.0437
GGCAGTTCTTGGGTTCTAACCTGTTGCTT (site GGCAGCTCTAA)	0.0661

Sequence	recombinant barcode read abundance (log10)
GGCAGTTCTTGGGTTCTAACCTGTTGCTT (site GGCAGGTCTAA)	0.0765
GGCAGTTCTTGGGTTCTAACCTGTTGCTT (site GGCAGTTCTAA)	0.0537
GGCCCCTCTTGGGTTCTAACCTGTTGCCG (site CGCGCCTCTCG)	0.368
GGCCCCTCTTGGGTTCTAACCTGTTGCCG (site GGCCCCTCTCG)	1.8
GGCCGAACTTGGGTTCTAACCTGTTGCCT (site AGCCGAACTAG)	0.112
GGCCGAACTTGGGTTCTAACCTGTTGCCT (site CGCCGAACTAG)	0.0639
GGCCGAACTTGGGTTCTAACCTGTTGCCT (site GGCCGAACTAG)	0.211
GGCCGAACTTGGGTTCTAACCTGTTGCCT (site TGCCGAACTAG)	0.144
GGCCGGGCTTGGGTTCTAACCTGTTGCGG (site GCCCGGGCTCC)	0.286
GGCCGGGCTTGGGTTCTAACCTGTTGCGG (site GGCCGGGCTCC)	0.906
GGCCTCCCTTGGGTTCTAACCTGTTGCAT (site CGCCTCCCTAT)	0.0328
GGCCTCCCTTGGGTTCTAACCTGTTGCAT (site GGCCTCCCTAT)	0.743
GGCGACCCTTGGGTTCTAACCTGTTGCCT (site GGCGACCCTAG)	0.99
GGCGACCCTTGGGTTCTAACCTGTTGCCT (site GGCGTCACTAG)	0.143
GGCGAGTCTTGGGTTCTAACCTGTTGCTA (site GACGAGTCTTA)	1.4
GGCGAGTCTTGGGTTCTAACCTGTTGCTA (site GGCGAGTCTTA)	1.64
GGCGCATCTTGGGTTCTAACCTGTTGCCT (site GGCGCATCTAG)	0.417
GGCGCATCTTGGGTTCTAACCTGTTGCCT (site GGCGCGTCTAG)	0.207
GGCGGAGCTTGGGTTCTAACCTGTTGCCG (site CTGCACCCTTA)	0.0863
GGCGGAGCTTGGGTTCTAACCTGTTGCCG (site GGCGGAGCTCG)	1.27
GGCGGCTCTTGGGTTCTAACCTGTTGCCT (site ACATAAGCTTA)	0.103
GGCGGCTCTTGGGTTCTAACCTGTTGCCT (site GGCGGCTCTAG)	1.42

Sequence	recombinant barcode read abundance (log10)
GGCTATGCTTGGGTTCTAACCTGTTGCCT (site GACTATGCTAG)	0.143
GGCTATGCTTGGGTTCTAACCTGTTGCCT (site GCCTATGCTAG)	0.106
GGCTATGCTTGGGTTCTAACCTGTTGCCT (site GGCTATGCTAG)	0.175
GGCTATGCTTGGGTTCTAACCTGTTGCCT (site GTCTATGCTAG)	0.0729
GGCTGAGCTTGGGTTCTAACCTGTTGCCT (site GACTGAGCTAC)	0.0838
GGCTGAGCTTGGGTTCTAACCTGTTGCCT (site GGCTGAGCTAG)	0.856
GGCTGATCTTGGGTTCTAACCTGTTGCCT (site AGCTGATCTAG)	0.126
GGCTGATCTTGGGTTCTAACCTGTTGCCT (site CGCTGATCTAG)	0.309
GGCTGATCTTGGGTTCTAACCTGTTGCCT (site GGCTGATCTAG)	0.382
GGCTGATCTTGGGTTCTAACCTGTTGCCT (site TGCTGATCTAG)	0.216
GGCTGCACTTGGGTTCTAACCTGTTGCCT (site GGCGGTACTAG)	0.504
GGCTGCACTTGGGTTCTAACCTGTTGCCT (site GGCTGCACTAG)	1.17
GGCTGGGCTTGGGTTCTAACCTGTTGCCG (site GGCTGGGCTCG)	0.125
GGCTGGGCTTGGGTTCTAACCTGTTGCCG (site GGTTGGGCTCT)	0.194
GGCTGTTCTTGGGTTCTAACCTGTTGCCT (site GACTGTTCTAG)	0.195
GGCTGTTCTTGGGTTCTAACCTGTTGCCT (site GCCTGTTCTAG)	0.425
GGCTGTTCTTGGGTTCTAACCTGTTGCCT (site GGCTGTTCTAG)	0.334
GGCTGTTCTTGGGTTCTAACCTGTTGCCT (site GTCTGTTCTAG)	0.242
GGCTTCCCTTGGGTTCTAACCTGTTGCCT (site GGCATCCCTAG)	0.299
GGCTTCCCTTGGGTTCTAACCTGTTGCCT (site GGCCTCCCTAG)	0.855
GGCTTCCCTTGGGTTCTAACCTGTTGCCT (site GGCGTCCCTAG)	0.141
GGCTTCCCTTGGGTTCTAACCTGTTGCCT (site GGCTTCCCTAG)	0.415

Sequence	recombinant barcode read abundance (log10)
GGCTTGACTTGGGTTCTAACCTGTTGCCT (site CCAGGTGCTCC)	0.304
GGCTTGACTTGGGTTCTAACCTGTTGCCT (site GGCTTGACTAG)	0.694
GGGAACACTTGGGTTCTAACCTGTTGCCA (site GGGAACACTTG)	1.74
GGGAACACTTGGGTTCTAACCTGTTGCCA (site GGGCACACTTG)	0.11
GGGAACCCTTGGGTTCTAACCTGTTGCAT (site AGGAACTCTAT)	0.115
GGGAACCCTTGGGTTCTAACCTGTTGCAT (site GGGAACCCTAT)	1.96
GGGACGACTTGGGTTCTAACCTGTTGCTT (site GGGACGACTAA)	1.04
GGGACGACTTGGGTTCTAACCTGTTGCTT (site GGGACGACTTA)	0.0442
GGGACTACTTGGGTTCTAACCTGTTGCCG (site ACTCGCTCTGT)	0.0845
GGGACTACTTGGGTTCTAACCTGTTGCCG (site GGGACTACTCG)	0.876
GGGATCCCTTGGGTTCTAACCTGTTGCGG (site CTCGAATCTAA)	0.024
GGGATCCCTTGGGTTCTAACCTGTTGCGG (site GGGATCCCTCC)	2
GGGCAGTCTTGGGTTCTAACCTGTTGCCG (site GGGCAGTCTCG)	1.78
GGGCAGTCTTGGGTTCTAACCTGTTGCCG (site GGGGCGTCTCG)	0.14
GGGCCCGCTTGGGTTCTAACCTGTTGCCT (site GGGCCCGCTAG)	1.84
GGGCCCGCTTGGGTTCTAACCTGTTGCCT (site GGGCCTGCTAG)	0.154
GGGCCTGCTTGGGTTCTAACCTGTTGCCT (site GGGCCCGCTAG)	0.645
GGGCCTGCTTGGGTTCTAACCTGTTGCCT (site GGGCCTGCTAG)	2.1
GGGGAAGCTTGGGTTCTAACCTGTTGCCT (site GAGGAAGCTAG)	0.276
GGGGAAGCTTGGGTTCTAACCTGTTGCCT (site GCGGAAGCTAG)	0.343
